According to patent publication US8912176B2 (Evotec AG, priority 2009, dated 2014):

Molecular target: human H3 receptor (Homo sapiens, UniProt Q9Y5N1)
Assay: cAMP quantification assay for human H3 receptor (DiscoveRx cAMP XS+)

Sequence of human H3 receptor (Q9Y5N1 whole entry): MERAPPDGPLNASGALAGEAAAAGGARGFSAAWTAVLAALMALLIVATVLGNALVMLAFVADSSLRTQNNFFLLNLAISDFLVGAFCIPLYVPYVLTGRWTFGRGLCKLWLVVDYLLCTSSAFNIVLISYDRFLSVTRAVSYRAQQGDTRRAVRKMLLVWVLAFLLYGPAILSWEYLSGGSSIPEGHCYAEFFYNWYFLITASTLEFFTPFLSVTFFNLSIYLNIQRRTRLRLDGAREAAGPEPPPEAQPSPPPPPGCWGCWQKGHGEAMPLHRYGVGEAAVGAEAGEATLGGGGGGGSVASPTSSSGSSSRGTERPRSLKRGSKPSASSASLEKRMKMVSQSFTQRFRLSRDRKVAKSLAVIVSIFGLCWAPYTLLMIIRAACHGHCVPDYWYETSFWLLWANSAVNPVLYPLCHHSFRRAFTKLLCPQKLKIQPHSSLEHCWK

Row | IC50 | SMILES
1 | < 0.05 µM | N#Cc1ccc(C(=O)N2CC(C(=O)N3CCCN(C4CCC4)CC3)C2)cc1 [Example 6, 4-({3-[(4-cyclobutyl-1,4-diazepan-1-yl)carbonyl]azetidin-1-yl}carbonyl)benzonitrile]
2 | < 0.05 µM | CS(=O)(=O)c1ccc(C(=O)N2CC(C(=O)N3CCCN(C4CCC4)CC3)C2)cc1 [Example 55, 1-cyclobutyl-4-[(1-{[4-(methylsulfonyl)phenyl]carbonyl}azetidin-3-yl)carbonyl]-1,4-diazepane]
3 | < 0.05 µM | CC(C)(O)c1ccc(C(=O)N2CC(C(=O)N3CCCN(C4CCC4)CC3)C2)cn1 [Example 76, 2-[5-({3-[(4-cyclobutyl-1,4-diazepan-1-yl)carbonyl]azetidin-1-yl}carbonyl)pyridin-2-yl]propan-2-ol]
4 | < 0.05 µM | N#Cc1ccc(OCC(=O)N2CC(C(=O)N3CCCN(C4CCC4)CC3)C2)cc1 [Example 22, 4-(2-{3-[(4-cyclobutyl-1,4-diazepan-1-yl)carbonyl]azetidin-1-yl}-2-oxoethoxy)benzonitrile]
5 | < 0.05 µM | O=C(CC1CCCCC1)N1CC(C(=O)N2CCCN(C3CCC3)CC2)C1 [Example 33, 1-cyclobutyl-4-{[1-(cyclohexylacetyl)azetidin-3-yl]carbonyl}-1,4-diazepane]
6 | < 0.05 µM | O=C(CN1CCCCC1)N1CC(C(=O)N2CCCN(C3CCC3)CC2)C1 [Example 16, 1-cyclobutyl-4-{[1-(piperidin-1-ylacetyl)azetidin-3-yl]carbonyl}-1,4-diazepane]
7 | < 0.05 µM | O=C(C1CN(S(=O)(=O)c2ccccc2)C1)N1CCCN(C2CCC2)CC1 [Example 26, 1-cyclobutyl-4-{[1-(phenylsulfonyl)azetidin-3-yl]carbonyl}-1,4-diazepane]
8 | < 0.05 µM | CN(Cc1ccc(F)cc1)C(=O)N1CC(C(=O)N2CCCN(C3CCC3)CC2)C1 [Example 62, 3-[(4-cyclobutyl-1,4-diazepan-1-yl)carbonyl]-N-(4-fluorobenzyl)-N-methylazetidine-1-carboxamide]
9 | < 0.05 µM | N#Cc1ccc(S(=O)(=O)N2CC(C(=O)N3CCCN(C4CCC4)CC3)C2)cc1 [Example 27, 4-({3-[(4-cyclobutyl-1,4-diazepan-1-yl)carbonyl]azetidin-1-yl}sulfonyl)benzonitrile]
10 | < 0.05 µM | O=C(C1CN(S(=O)(=O)CC2CCCC2)C1)N1CCCN(C2CCC2)CC1 [Example 25, 1-cyclobutyl-4-({1-[(cyclopentylmethyl)sulfonyl]azetidin-3-yl}carbonyl)-1,4-diazepane]
11 | < 0.05 µM | Cc1ccc(CC(=O)N2CC(C(=O)N3CCCN(C4CCC4)CC3)C2)cn1 [Example 43, 1-cyclobutyl-4-({1-[(6-methylpyridin-3-yl)acetyl]azetidin-3-yl}carbonyl)-1,4-diazepane]
12 | < 0.05 µM | Cc1ccc(OCC(=O)N2CC(C(=O)N3CCCN(C4CCC4)CC3)C2)cn1 [Example 21, 1-cyclobutyl-4-[(1-{[(6-methylpyridin-3-yl)oxy]acetyl}azetidin-3-yl)carbonyl]-1,4-diazepane]
13 | < 0.05 µM | O=C(c1ccc(Oc2ccccc2)cc1)N1CC(C(=O)N2CCCN(C3CCC3)CC2)C1 [Example 39, 1-cyclobutyl-4-({1-[(4-phenoxyphenyl)carbonyl]azetidin-3-yl}carbonyl)-1,4-diazepane]
14 | < 0.05 µM | O=C(C1CN(C(=O)C2CCC(F)(F)CC2)C1)N1CCCN(C2CCC2)CC1 [Example 29, 1-cyclobutyl-4-({1-[(4,4-difluorocyclohexyl)carbonyl]azetidin-3-yl}carbonyl)-1,4-diazepane]
15 | < 0.05 µM | O=C(c1ccc(-n2ccnc2)cc1)N1CC(C(=O)N2CCCN(C3CCC3)CC2)C1 [Example 72, 1-cyclobutyl-4-[(1-{[4-(1H-imidazol-1-yl)phenyl]carbonyl}azetidin-3-yl)carbonyl]-1,4-diazepane]
16 | < 0.05 µM | O=C(c1ccc(-c2cccnc2)cc1)N1CC(C(=O)N2CCCN(C3CCC3)CC2)C1 [Example 44, 1-cyclobutyl-4-({1-[(4-pyridin-3-ylphenyl)carbonyl]azetidin-3-yl}carbonyl)-1,4-diazepane]
17 | < 0.05 µM | CN(CC1CCOCC1)C(=O)N1CC(C(=O)N2CCCN(C3CCC3)CC2)C1 [Example 61, 3-[(4-cyclobutyl-1,4-diazepan-1-yl)carbonyl]-N-methyl-N-(tetrahydro-2H-pyran-4-ylmethyl)azetidine-1-carboxamide]
18 | < 0.05 µM | O=C(c1ccc(OC2CCOCC2)cc1)N1CC(C(=O)N2CCCN(C3CCC3)CC2)C1 [Example 11, 1-cyclobutyl-4-[(1-{[4-(tetrahydro-2H-pyran-4-yloxy)phenyl]carbonyl}azetidin-3-yl)carbonyl]-1,4-diazepane]
19 | < 0.05 µM | O=C(OCc1ccccc1)N1CC(C(=O)N2CCCN(C3CCC3)CC2)C1 [Example 1, benzyl 3-[(4-cyclobutyl-1,4-diazepan-1-yl)carbonyl]azetidine-1-carboxylate]
20 | < 0.05 µM | O=C(c1ccc(-n2cccn2)nc1)N1CC(C(=O)N2CCCN(C3CCC3)CC2)C1 [Example 14, 1-cyclobutyl-4-[(1-{[6-(1H-pyrazol-1-yl)pyridin-3-yl]carbonyl}azetidin-3-yl)carbonyl]-1,4-diazepane]
21 | < 0.05 µM | COC(=O)c1ccc(C(=O)N2CC(C(=O)N3CCCN(C4CCC4)CC3)C2)cn1 [Example 7, methyl 5-({3-[(4-cyclobutyl-1,4-diazepan-1-yl)carbonyl]azetidin-1-yl}carbonyl)pyridine-2-carboxylate]
22 | < 0.05 µM | CN(C(=O)N1CC(C(=O)N2CCCN(C3CCC3)CC2)C1)c1ccc(C#N)cc1 [Example 63]
23 | < 0.05 µM | O=C(c1ccc(-n2cncn2)c(F)c1)N1CC(C(=O)N2CCCN(C3CCC3)CC2)C1 [Example 78, 1-cyclobutyl-4-[(1-{[3-fluoro-4-(1H-1,2,4-triazol-1-yl)phenyl]carbonyl}azetidin-3-yl)carbonyl]-1,4-diazepane]
24 | < 0.05 µM | O=C(CN1CCS(=O)(=O)CC1)N1CC(C(=O)N2CCCN(C3CCC3)CC2)C1 [Example 18, 1-cyclobutyl-4-({1-[(1,1-dioxidothiomorpholin-4-yl)acetyl]azetidin-3-yl}carbonyl)-1,4-diazepane]
25 | < 0.05 µM | O=C(c1ccc(Cn2cncn2)cc1)N1CC(C(=O)N2CCCN(C3CCC3)CC2)C1 [Example 74, 1-cyclobutyl-4-[(1-{[4-(1H-1,2,4-triazol-1-ylmethyl)phenyl]carbonyl}azetidin-3-yl)carbonyl]-1,4-diazepane]
26 | < 0.05 µM | CC(=O)N1CC(C(=O)N2CCCN(C3CCC3)CC2)C1 [Example 70, 1-[(1-acetylazetidin-3-yl)carbonyl]-4-cyclobutyl-1,4-diazepane]
27 | 0.1 to 5 µM | O=C(CC1CCOCC1)N1CC(C(=O)N2CCCN(C3CCC3)CC2)C1 [Example 53, 1-cyclobutyl-4-{[1-(tetrahydro-2H-pyran-4-ylacetyl)azetidin-3-yl]carbonyl}-1,4-diazepane]
28 | < 0.05 µM | O=C(c1ccc(-c2nccs2)cc1)N1CC(C(=O)N2CCCN(C3CCC3)CC2)C1 [Example 35, 1-cyclobutyl-4-[(1-{[4-(1,3-thiazol-2-yl)phenyl]carbonyl}azetidin-3-yl)carbonyl]-1,4-diazepane]

Row | SMILES | IC50
29 | O=C(Oc1ccc(Cl)cc1)N1CC(C(=O)N2CCCN(C3CCC3)CC2)C1 [Example 67, 4-chlorophenyl 3-[(4-cyclobutyl-1,4-diazepan-1-yl)carbonyl]azetidine-1-carboxylate] | < 0.05 µM
